Reference: patent US4094979A, “Orally active cephalosporins” (American Home Products Corporation, priority 1976, dated 1978)
In brackets after ≈: the same amount, converted by molar mass. Counter-ions that a name gives are not always drawn.

Legend:
[1] = tested on: E. Coli (920); test: oral antibacterial activity in intraperitoneally infected CD-1 mice; type: in vivo
Procedure: (§1) The oral antibacterial activity of the compounds of this invention was establihsed by intraperitoneally infecting four groups of 10 male mice CD-1 strain weighing 17-19 grams with 0.5 milliliter of a standardized suspension of bacterium in 5 percent gastric mucin. The animals were then randomized and at 6 hours post infection a single dose of the antibacterial compound being tested was given orally at 7.2, 3.6, 1.8 and 0.9 mg/mouse to each group of 10 mice.
(§2) Testing against E. Coli (920-LD95), as a general representative of gram-negative bacteria, was followed by testing against Proteus vulgaris (347) as an example of a special application against a gram negative bacterium. In the oral anti-bacterial activity test, an arbitrary maximum dose is set at 7.2 milligrams per mouse below which activity must be found before a compound is considered orally active. The arbitrary maximum dose of 7.2 milligrams per mouse represents a practical dose limit in terms of the potency of known orally active antibacterial agents.

[2] = tested on: E. Coli (E-2); test: as above; type: in vivo
Procedure: as §1, §2

[3] = tested on: E. Coli (E-3); test: as above; type: in vivo
Procedure: as §1, §2

[4] = tested on: E. Coli W-102; test: as above; type: in vivo; conditions: E. Coli W-102, at 7.2 mg/mouse
Procedure: as §1, §2

[5] = tested on: Proteus vulgaris (347); test: as above; type: in vivo
Procedure: as §1, §2

[6] = tested on: Kl Pn; test: as above; type: in vivo; conditions: P.O., single dose 6 hours post infection, 14 days
Procedure: as §1, §2

[7] = tested on: Pr Mi; test: as above; type: in vivo; conditions: P.O., single dose 6 hours post infection, 14 days
Procedure: as §1, §2

[8] = tested on: St Au (Smith); test: as above; type: in vivo
Procedure: as §1, §2

[9] = tested on: St Py; test: as above; type: in vivo; conditions: P.O., single dose 6 hours post infection, 14 days
Procedure: as §1, §2

[10] = tested on: St Au 6538P; test: in vitro agar serial dilution, MIC; type: cell-based; conditions: strain 6538P
[11] = tested on: St Au Smith; test: in vitro agar serial dilution, MIC; type: cell-based; conditions: strain Smith
[12] = tested on: St Au CHP; test: in vitro agar serial dilution, MIC; type: cell-based; conditions: strain CHP
[13] = tested on: St Au 53-180; test: in vitro agar serial dilution, MIC; type: cell-based; conditions: strain 53-180
[14] = tested on: My Sm 10143; test: in vitro agar serial dilution, MIC; type: cell-based; conditions: strain 10143
[15] = tested on: Ne Ca 819; test: in vitro agar serial dilution, MIC; type: cell-based; conditions: strain 819
[16] = tested on: Ps Ae 10145; test: in vitro agar serial dilution, MIC; type: cell-based; conditions: strain 10145
[17] = tested on: Es Co 9637; test: in vitro agar serial dilution, MIC; type: cell-based; conditions: strain 9637
[18] = tested on: Es In 65-1; test: in vitro agar serial dilution, MIC; type: cell-based; conditions: strain 65-1
[19] = tested on: Sa Pa 11737; test: in vitro agar serial dilution, MIC; type: cell-based; conditions: strain 11737
[20] = tested on: En Ae 13048; test: in vitro agar serial dilution, MIC; type: cell-based; conditions: strain 13048
[21] = tested on: Kl Pn 10031; test: in vitro agar serial dilution, MIC; type: cell-based; conditions: strain 10031
[22] = tested on: Pr Mi 9921; test: in vitro agar serial dilution, MIC; type: cell-based; conditions: strain 9921
[23] = E. Coli, P.O., single dose 6 hours post infection, 14 days
[24] = Pr Bu, P.O., single dose 6 hours post infection, 14 days
[25] = P.O., single dose 6 hours post infection, 14 days

`Cn1nnnc1SCC1=C(C(=O)O)N2C(=O)C(NC(=O)CCN3C(=O)CSC3=S)C2SC1` (stereo not drawn) showed a CD50 ([1]; E. Coli (920), oral) of 3.05 mg/mouse, a CD50 [2] of 3.30 mg/mouse and a CD50 [3] of 2.12 mg/mouse. For the same compound, the oral antibacterial activity [4] was “inactive” and the CD50 ([5]; Pr vulgaris (347), oral) was 5.90 mg/mouse.
Compound `CC1=C(C(=O)O)N2C(=O)[C@@H](NC(=O)[C@H](N)C3=CCC=CC3)[C@H]2SC1` [Cephradine, reference compound] has a CD50 [1, 23] of 2.27 mg/mouse, a CD50 [6] of 2.42 mg/mouse and a CD50 [7] of 2.25 mg/mouse. The CD50 [5, 24] was 6.52 mg/mouse, the CD50 [8, 25] was 0.140 mg/mouse and the CD50 [9] was < 0.45 mg/mouse.
`Cn1nnnc1SCC1=C(C(=O)O)N2C(=O)C(NC(=O)CCN3C(=O)CSC3=S)C2SC1` (stereo not drawn) [Ex. 1-Na salt] gave a CD50 [1, 23] of 2.35 mg/mouse, a CD50 [6] of 1.36 mg/mouse and a CD50 [7] of 4.49 mg/mouse. For the same compound, the CD50 [5, 24] was 5.97 mg/mouse, the CD50 [8, 25] was 2.73 mg/mouse and the CD50 [9] was > 3.6 mg/mouse.
Compound `Cn1nnnc1SCC1=C(C(=O)O)N2C(=O)C(NC(=O)CCN3C(=O)CSC3=S)C2SC1` (stereo not drawn) [Example 1 acid] has an MIC [10] of 1.95 µg/mL (≈ 3.78 µM), an MIC [11] of 1.95 µg/mL (≈ 3.78 µM) and an MIC [12] of 7.81 µg/mL (≈ 15.1 µM). It also gave an MIC [13] of 3.9 µg/mL (≈ 7.56 µM), an MIC [14] of 250 µg/mL (≈ 485 µM) and an MIC [15] of 31.3 µg/mL (≈ 60.7 µM). It also gave an MIC [16] of 250 µg/mL (≈ 485 µM), an MIC [17] of 3.9 µg/mL (≈ 7.56 µM) and an MIC [18] of 62.5 µg/mL (≈ 121 µM). The MIC [19] was 0.97 µg/mL (≈ 1.88 µM), the MIC [20] was 250 µg/mL (≈ 485 µM) and the MIC [21] was 3.9 µg/mL (≈ 7.56 µM). The MIC [22] was 0.97 µg/mL (≈ 1.88 µM), the CD50 ([1]; E. Coli (920), buffered to pH 4.9 in aqueous solution) was 2.97 mg/mouse and the CD50 ([5]; Pr vulgaris (Pr-347), buffered to pH 4.9 in aqueous solution) was 5.97 mg/mouse. For the same compound, the CD50 ([8]; buffered to pH 4.9 in aqueous solution) was 2.73 mg/mouse.
